Test results reported in patent US9944602B2, “Piperidinone herbicides” (E. I. DU PONT DE NEMOURS AND COMPANY, priority 2014, dated 2018).

Tests used:
Format in all cases: in vivo
[1] = test system: morningglory (Ipomoea spp.); assay: Test A postemergence morningglory; details: 0 to 100 scale, 0 is no effect, 100 is complete control
Source text: (§1) Seeds of plant species selected from barnyardgrass (Echinochloa crus-galli), kochia (Kochia scoparia), ragweed (common ragweed, Ambrosia elatior), ryegrass, Italian (Italian ryegrass, Lolium multiflorum), crabgrass, large (large crabgrass, Digitaria sanguinalis), foxtail, giant (giant foxtail, Setaria faberii), morningglory (Ipomoea spp.), pigweed (Amaranthus retroflexus), velvetleaf (Abutilon theophrasti), wheat (Triticum aestivum), and corn (Zea mays) were planted into a blend of loam soil and sand and treated preemergence with a directed soil spray using test chemicals formulated in a non-phytotoxic solvent mixture which included a surfactant.
(§2) At the same time, plants selected from these crop and weed species and also blackgrass (Alopecurus myosuroides), and galium (catchweed bedstraw, Galium aparine) were planted in pots containing the same blend of loam soil and sand and treated with postemergence applications of test chemicals formulated in the same manner. Plants ranged in height from 2 to 10 cm and were in the one- to two-leaf stage for the postemergence treatment. Treated plants and untreated controls were maintained in a greenhouse for approximately 10 d, after which time all treated plants were compared to untreated controls and visually evaluated for injury. Plant response ratings, summarized in Table A, are based on a 0 to 100 scale where 0 is no effect and 100 is complete control. A dash (-) response means no test result.

[2] = test system: waterhemp (common waterhemp, Amaranthus rudis); assay: Test C preemergence waterhemp; details: Table C, scale 0 to 100
Source text: (§3) Seeds of plant species selected from blackgrass (Alopecurus myosuroides), ryegrass, Italian (Italian ryegrass, Lolium multiflorum), wheat (winter wheat, Triticum aestivum), galium (catchweed bedstraw, Galium aparine), corn (Zea mays), crabgrass, large (large crabgrass, Digitaria sanguinalis), foxtail, giant (giant foxtail, Setaria faberii), johnsongrass (Sorghum halepense), lambsquarters (Chenopodium album), morningglory (Ipomoea coccinea), yellow (yellow nutsedge, Cyperus esculentus), pigweed (Amaranthus retroflexus), ragweed (common ragweed, Ambrosia elatior), soybean (Glycine max), barnyardgrass (Echinochloa crus-galli), oilseed rape (Brassica napus), waterhemp (common waterhemp, Amaranthus rudis), and velvetleaf (Abutilon theophrasti) were planted into a blend of loam soil and sand and treated preemergence with test chemicals formulated in a non-phytotoxic solvent mixture which included a surfactant. At the same time, plants selected from these crop and weed species and also chickweed (common chickweed, Stellaria media), kochia (Kochia scoparia), and oat, wild (wild oat, Avena fatua) were planted in pots containing Sunshine Redi-Earth® planting medium comprising spaghnum peat moss, vermiculite, starter nutrients and dolomitic limestone and treated with postemergence applications of test chemicals formulated in the same manner. Plants ranged in height from 2 to 18 cm (1- to 4-leaf stage) for postemergence treatments. Treated plants and controls were maintained in a greenhouse for 13 to 15 days, after which time all species were compared to controls and visually evaluated. Plant response ratings, summarized in Table C, are based on a scale of 0 to 100 where 0 is no effect and 100 is complete control. A dash (-) response means no test result.

[3] = test system: crabgrass, large (large crabgrass, Digitaria sanguinalis); assay: Test A postemergence crabgrass, large; details: 0 to 100 scale, 0 is no effect, 100 is complete control
Source text: as §1, §2

[4] = test system: blackgrass (Alopecurus myosuroides); assay: Test C postemergence blackgrass; details: Table C, scale 0 to 100
Source text: as §3

[5] = test system: foxtail, giant (giant foxtail, Setaria faberii); assay: Test C preemergence foxtail, giant; details: Table C, scale 0 to 100
Source text: as §3

[6] = test system: corn (Zea mays); assay: Test A preemergence corn; details: 0 to 100 scale; for Corn plant response rating: 125 g ai/ha, 0 no effect, 100 complete control; for Plant response rating, Corn: 500 g ai/ha, 0 is no effect, 100 is complete control
Source text: as §1, §2

[7] = test system: lambsquarters (Chenopodium album); assay: Test C preemergence lambsquarters; details: Table C, scale 0 to 100
Source text: as §3

[8] = test system: oilseed rape (Brassica napus); assay: Test C preemergence oilseed rape; details: Table C, scale 0 to 100
Source text: as §3

[9] = test system: yellow (yellow nutsedge, Cyperus esculentus); assay: Test C preemergence yellow nutsedge; details: Table C, scale 0 to 100
Source text: as §3

[10] = test system: corn (Zea mays); assay: Test C preemergence corn; details: Table C, scale 0 to 100
Source text: as §3

[11] = test system: soybean (Glycine max); assay: Test C postemergence soybean; details: Table C, scale 0 to 100
Source text: as §3

[12] = test system: oat, wild (wild oat, Avena fatua); assay: Test C postemergence oat, wild; details: Table C, scale 0 to 100
Source text: as §3

[13] = test system: galium (catchweed bedstraw, Galium aparine); assay: Test C postemergence galium; details: Table C, scale 0 to 100
Source text: as §3

[14] = test system: johnsongrass (Sorghum halepense); assay: Test C preemergence johnsongrass; details: Table C, scale 0 to 100
Source text: as §3

[15] = test system: soybean (Glycine max); assay: Test C preemergence soybean; details: Table C, scale 0 to 100
Source text: as §3

[16] = test system: ryegrass, Italian (Italian ryegrass, Lolium multiflorum); assay: Test C preemergence ryegrass, Italian; details: Table C, scale 0 to 100
Source text: as §3

[17] = test system: oilseed rape (Brassica napus); assay: Test C postemergence oilseed rape; details: Table C, scale 0 to 100
Source text: as §3

[18] = test system: morningglory (Ipomoea spp.); assay: Test A preemergence morningglory; details: 0 to 100 scale, 0 no effect, 100 complete control
Source text: as §1, §2

[19] = test system: chickweed (common chickweed, Stellaria media); assay: Test C postemergence chickweed; details: Table C, scale 0 to 100
Source text: as §3

O=C1NCCC(c2cccc(C(F)(F)F)c2)C1C(=O)Nc1cccc(F)c1F (stereo not shown) [Compound 9, N-(2,3-difluorophenyl)-2-oxo-4-[3-(trifluoromethyl)phenyl]-3-piperidinecarboxamide]
Plant response rating, Morningglory ([1]; 125 g ai/ha): 0
Plant response rating, Morningglory ([1]; 500 g ai/ha): 40
Plant response rating ([2]; 31 g ai/ha): 15
Plant response rating ([2]; 62 g ai/ha): 0
Plant response rating ([2]; 125 g ai/ha): 20
Plant response rating ([2]; 250 g ai/ha): 0
Plant response rating, Crabgrass, Large ([3]; 125 g ai/ha): 80
Plant response rating, Crabgrass, Large ([3]; 500 g ai/ha): 90
Plant response rating ([4]; 31 g ai/ha): 0
Plant response rating ([4]; 62 g ai/ha): 0
Plant response rating ([4]; 125 g ai/ha): 0
Plant response rating ([4]; 250 g ai/ha): 0
Plant response rating ([5]; 31 g ai/ha): 90
Plant response rating ([5]; 62 g ai/ha): 95
Plant response rating ([5]; 125 g ai/ha): 95
Plant response rating ([5]; 250 g ai/ha): 98
Corn plant response rating [6]: 20
Plant response rating, Corn [6]: 70
Plant response rating ([7]; 31 g ai/ha): 0
Plant response rating ([7]; 62 g ai/ha): 0
Plant response rating ([7]; 125 g ai/ha): 0
Plant response rating ([7]; 250 g ai/ha): 0
Plant response rating ([8]; 31 g ai/ha): 0
Plant response rating ([8]; 62 g ai/ha): 0
Plant response rating ([8]; 125 g ai/ha): 0
Plant response rating ([8]; 250 g ai/ha): 40
Plant response rating ([9]; 31 g ai/ha): 0
Plant response rating ([9]; 62 g ai/ha): 0
Plant response rating ([9]; 125 g ai/ha): 0
Plant response rating ([9]; 250 g ai/ha): 0
Plant response rating ([10]; 31 g ai/ha): 0
Plant response rating ([10]; 62 g ai/ha): 0
Plant response rating ([10]; 125 g ai/ha): 75
Plant response rating ([10]; 250 g ai/ha): 90
Plant response rating ([11]; 31 g ai/ha): 0
Plant response rating ([11]; 62 g ai/ha): 0
Plant response rating ([11]; 125 g ai/ha): 0
Plant response rating ([11]; 250 g ai/ha): 10
Plant response rating ([12]; 31 g ai/ha): 0
Plant response rating ([12]; 62 g ai/ha): 0
Plant response rating ([12]; 125 g ai/ha): 0
Plant response rating ([12]; 250 g ai/ha): 0
Plant response rating ([13]; 31 g ai/ha): 0
Plant response rating ([13]; 62 g ai/ha): 0
Plant response rating ([13]; 125 g ai/ha): 0
Plant response rating ([13]; 250 g ai/ha): 40
Plant response rating ([14]; 31 g ai/ha): 0
Plant response rating ([14]; 62 g ai/ha): 0
Plant response rating ([14]; 125 g ai/ha): 35
Plant response rating ([14]; 250 g ai/ha): 55
Plant response rating ([15]; 31 g ai/ha): 0
Plant response rating ([15]; 62 g ai/ha): 0
Plant response rating ([15]; 125 g ai/ha): 0
Plant response rating ([15]; 250 g ai/ha): 0
Plant response rating ([16]; 31 g ai/ha): 30
Plant response rating ([16]; 62 g ai/ha): 50
Plant response rating ([16]; 125 g ai/ha): 30
Plant response rating ([16]; 250 g ai/ha): 80
Plant response rating ([17]; 31 g ai/ha): 0
Plant response rating ([17]; 62 g ai/ha): 0
Plant response rating ([17]; 125 g ai/ha): 0
Plant response rating ([17]; 250 g ai/ha): 5
Morningglory plant response rating ([18]; 125 g ai/ha): 0
Morningglory plant response rating ([18]; 500 g ai/ha): 0
Plant response rating ([19]; 31 g ai/ha): 0
Plant response rating ([19]; 62 g ai/ha): 0
Plant response rating ([19]; 125 g ai/ha): 0
Plant response rating ([19]; 250 g ai/ha): 5

O=C1NCCC(c2cccc(C(F)(F)F)c2)C1C(=O)Nc1ccccc1C(F)(F)F (stereo not shown) [Compound 10, 2-oxo-N-[2-(trifluoromethyl)phenyl)-4-[3-(trifluoromethyl)phenyl]-3-piperidinecarboxamide]
Plant response rating, Morningglory ([1]; 125 g ai/ha): 0
Plant response rating, Morningglory ([1]; 500 g ai/ha): 0
Plant response rating, Crabgrass, Large ([3]; 125 g ai/ha): 60
Plant response rating, Crabgrass, Large ([3]; 500 g ai/ha): 80
Corn plant response rating [6]: 0
Plant response rating, Corn [6]: 0
Morningglory plant response rating ([18]; 125 g ai/ha): 0
Morningglory plant response rating ([18]; 500 g ai/ha): 0
